Data as given in publication PMC6458216, “In vitro reconstitution and characterisation of the oxidative D-xylose pathway for production of organic acids and alcohols” (AMB Express, 2019).

Columns and labels:
Assay type in all cases: biochemical
Ec FucO = biological target: T1, Ec FucO (Escherichia coli, UniProt P0A9S1); assay: purified enzyme within 4-enzyme cascade, NADH oxidation at […] nm; conditions: glycolaldehyde formed by Ec YagE from 1 mM xylonolactone via cascade; 2 mM NADH, 50 mM Tris-HCl pH 7.0, 22 °C
T1 sequence (P0A9S1 1-382): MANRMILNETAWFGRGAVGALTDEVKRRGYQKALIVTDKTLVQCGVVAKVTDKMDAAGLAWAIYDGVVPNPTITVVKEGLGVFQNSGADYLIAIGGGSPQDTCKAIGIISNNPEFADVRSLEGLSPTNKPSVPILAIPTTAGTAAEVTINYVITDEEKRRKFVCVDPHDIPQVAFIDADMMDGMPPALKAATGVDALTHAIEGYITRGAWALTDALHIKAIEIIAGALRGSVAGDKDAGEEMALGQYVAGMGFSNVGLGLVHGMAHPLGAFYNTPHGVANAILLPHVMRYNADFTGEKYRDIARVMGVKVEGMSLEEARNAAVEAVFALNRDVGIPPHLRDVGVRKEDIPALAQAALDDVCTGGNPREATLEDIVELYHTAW

Cc XylC = biological target: T2, Cc XylC (Caulobacter vibrioides, UniProt Q9A9Z1); assay: CD ([…] nm) and 1H-NMR lactone ring-opening assay; conditions: CD: 1 mM lactone, 10 mM Tris-HCl pH 6-8, 25 °C; NMR: 2 mM lactone, pH 6.8, 22 °C, 100 µM metal ions or EDTA
T2 construct: full length, untagged (C-terminal Strep-tag II removed), synthetic codon-optimised gene in E. coli BL21(DE3), DEAE purified, mainly monomer

Ab AraE = Ab AraE (Azospirillum brasilense, UniProt Q1JUP4); assay: NADH formation at […] nm, steady-state kinetics; conditions: 50 mM Tris-HCl pH 7.0, 2 mM NAD+, 1 mM DTT, glycolaldehyde 0-2 mM
Ec AldA = Ec AldA (Escherichia coli, UniProt P25553); assay: NADH formation at […] nm, steady-state kinetics; conditions: 50 mM Tris-HCl pH 7.0, 2 mM NAD+, 1 mM DTT, glycolaldehyde 0-2 mM
Sequence of Ec AldA (P25553 whole entry): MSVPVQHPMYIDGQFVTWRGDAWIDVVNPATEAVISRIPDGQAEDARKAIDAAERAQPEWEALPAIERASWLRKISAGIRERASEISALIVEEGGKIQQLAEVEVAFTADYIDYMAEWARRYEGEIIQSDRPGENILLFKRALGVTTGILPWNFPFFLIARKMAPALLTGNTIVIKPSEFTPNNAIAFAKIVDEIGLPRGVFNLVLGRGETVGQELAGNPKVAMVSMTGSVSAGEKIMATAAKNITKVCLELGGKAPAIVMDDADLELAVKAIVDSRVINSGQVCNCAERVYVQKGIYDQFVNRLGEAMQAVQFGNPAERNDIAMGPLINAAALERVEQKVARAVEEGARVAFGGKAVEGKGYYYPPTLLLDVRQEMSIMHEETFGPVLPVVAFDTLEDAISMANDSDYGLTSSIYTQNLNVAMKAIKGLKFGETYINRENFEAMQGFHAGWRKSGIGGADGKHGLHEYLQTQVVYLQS

Sequence of Ab AraE (Q1JUP4 whole entry): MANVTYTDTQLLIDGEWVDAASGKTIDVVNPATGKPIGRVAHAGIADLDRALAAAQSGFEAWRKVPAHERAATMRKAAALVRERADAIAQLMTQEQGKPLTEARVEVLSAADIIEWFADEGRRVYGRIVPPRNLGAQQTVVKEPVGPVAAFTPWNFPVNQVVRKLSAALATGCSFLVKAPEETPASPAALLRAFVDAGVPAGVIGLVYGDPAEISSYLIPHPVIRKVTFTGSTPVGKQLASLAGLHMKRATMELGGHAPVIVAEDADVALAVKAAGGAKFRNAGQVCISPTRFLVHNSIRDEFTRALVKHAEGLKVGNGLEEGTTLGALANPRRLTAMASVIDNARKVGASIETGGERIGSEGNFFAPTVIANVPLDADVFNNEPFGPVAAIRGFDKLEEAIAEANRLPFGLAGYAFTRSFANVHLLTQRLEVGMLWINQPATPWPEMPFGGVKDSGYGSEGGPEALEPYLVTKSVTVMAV
T2 sequence (Q9A9Z1 whole entry): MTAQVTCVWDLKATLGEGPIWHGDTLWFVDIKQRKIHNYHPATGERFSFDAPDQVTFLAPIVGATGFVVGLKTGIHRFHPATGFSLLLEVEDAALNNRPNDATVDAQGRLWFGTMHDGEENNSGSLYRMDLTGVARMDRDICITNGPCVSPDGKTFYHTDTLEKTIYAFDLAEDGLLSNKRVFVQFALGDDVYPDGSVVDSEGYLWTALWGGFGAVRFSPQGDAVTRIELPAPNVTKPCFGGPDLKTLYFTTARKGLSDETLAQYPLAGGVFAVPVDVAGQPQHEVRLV

Structure (SMILES)	purified enzyme within 4-enzyme cascade, NADH oxidation at 340 nm (Ec FucO)	CD (220 nm) and 1H-NMR lactone ring-opening assay (Cc XylC)	NADH formation at 340 nm, steady-state kinetics (Ab AraE)	NADH formation at 340 nm, steady-state kinetics (Ec AldA)
NC(=O)C1=CN([C@@H]2O[C@H](COP(=O)(O)OP(=O)(O)OC[C@H]3O[C@@H](n4cnc5c(N)ncnc54)[C@H](O)[C@@H]3O)[C@@H](O)[C@H]2O)C=CC1 [NADH]	the production of ethylene glycol was followed through generation of NAD^+	–	–	–
O=C1O[C@H](CO)[C@H](O)[C@H]1O [D-xylono-1,4-lactone]	–	Cc XylC was able to open the xylonolactone without addition of any metal	–	–
O=CCO [glycolaldehyde]	an increase of the enzyme concentration resulted in an increase in the production levels	–	we compare the glycolaldehyde dependent activity of Ec AldA and Ab AraE	we compare the glycolaldehyde dependent activity of Ec AldA and Ab AraE
